In US9868734B2, “Conjugate of benzofuranone and indole or azaindole, and preparation and uses thereof” (Luoda Biosciences, Inc., priority 2013, dated 2018):
Read-outs that look alike come from different tables or passages of the source.

Assays:
[1] = system: human lung adenocarcinoma epithelial cell line A549; experiment: MTT assay, inhibition of tumor cell growth (A549); assay type: cell-based; details: 72 hours incubation, read-out: IC50 on the tumor cells A549
Description: (§1) human hepatocellular carcinoma cell line HepG-2, human lung adenocarcinoma epithelial cell line A549
(§2) Tumor cells were seeded in RPM11640 medium containing 10% calf serum, incubated at 37° C., 5% CO2 in CO2 incubator, and passaged every 2-3 days. Cells at logarithmic growth phase were used for this experiment.
(§3) The cells at logarithmic growth phase were formulated into suspension. The cell viability by trypan blue staining was more than 98%. The cell suspension was divided into several groups: 1 as blank control group (cell suspension plus solvent DMSO); and 2 as experimental groups (cell suspension plus compounds to be tested).
(§4) The drugs were formulated into a stock solution in DMSO, and the concentration of the stock solution was 20 mmol (used within 4 hours). In the experiment, the work solution of the drugs was diluted with RPMI1640 medium containing 10% calf serum under aseptic condition, to a final concentration of […]. The drug concentrations were increased by 2 times (1.25-20 μM).
(§5) The cells in logarithmic growth phase were selected, centrifuged, counted, and formulated into a cell suspension (2.5×10^4/ml) with RPMI1640 medium containing 10% calf serum. The cell suspension were inoculated into 96-well plates at a density of 5000 cells/200 μl per well, incubated for 24 hours at 37° C., 5% CO2. According to the above concentration of the drug, the cells were inoculated to 6 groups (including one control group), with 8 wells per group. After incubating for 72 hours, the viability of cells was measured by MTT assay. The absorbance value (A) was measured with detection wavelength at 540 nm, reference wavelength at 630 nm. The inhibitory rate (I) was calculated by the following equation, where T was the absorbance value of the experimental groups, and C was the absorbance value of the blank control group: I=(1−T/C)×100%
(§6) Equation of regression line was drawn from concentration-inhibitory rate curve, from which the IC50 of tested sample was calculated.

[2] = system: human hepatocellular carcinoma cell line HepG-2; experiment: MTT assay, inhibition of tumor cell growth (HepG2); assay type: cell-based; details: 72 hours incubation, read-out: IC50 on the tumor cells HepG2
Description: as §1, §2, §3, §4, §5, §6

IC50 [1] [µM] | IC50 [2] [µM] | IC50 ([1]; Homo sapiens) [µM] | IC50 ([2]; Homo sapiens) [µM] | SMILES
28.5 ± 1.6 | 19.6 ± 1.3 | – | – | CC(C)N1C(=O)C(=C2C(=O)Oc3ccccc32)c2cnc(F)cc21 [Compound 130]
11.5 ± 1.2 | 26 ± 2.1 | – | – | O=C1Oc2ccccc2C1=C1C(=O)N(Cc2ccccc2)c2ccncc21 [Compound 134]
12.1 ± 1.4 | 25.8 ± 1.7 | – | – | O=C1Nc2nc(Cl)ccc2C1=C1C(=O)Oc2ccccc21 [Compound 138]
1.9 ± 0.8 | 7.3 ± 0.8 | – | – | Cc1cccc2c1OC(=O)C2=C1C(=O)N(C)c2ncccc21 [Compound 140]
26.3 ± 2.1 | 35.2 ± 2.3 | – | – | CCN1C(=O)C(=C2C(=O)Oc3ccccc32)c2cc(F)cnc21 [Compound 146]
7.9 ± 1.3 | 5.6 ± 0.6 | – | – | CC(C)N1C(=O)C(=C2C(=O)Oc3ccc(F)cc32)c2cccnc21 [Compound 150]
18.2 ± 1.2 | 42.3 ± 1.8 | – | – | O=C1Oc2ccccc2C1=C1C(=O)N(Cc2ccccc2)c2ncccc21 [Compound 152]
– | – | 19 ± 1.1 | 7.1 ± 0.7 | CCN1C(=O)/C(=C2\Nc3ccccc3C2=O)c2ccccc21 [Compound 154, 1-ethyl-indirubin, reference compound]
– | – | 30.3 ± 1.5 | 7 ± 1.3 | CCN1C(=O)/C(=C2\Nc3ccccc3\C2=N/O)c2ccccc21 [Compound 155, 1-ethyl-indirubin-3′-oxime, reference compound]
